These results are taken from US20090227456A1, “Process for Combating Water Polluted By Algae” (priority 2006, published 2009).

The test system of test [1] is polluting algae of the Dianchi water. The experiment in a line: Experiments on the shore of polluted lake Dianchi: acidization of the water by carbon dioxide. It is filed as in vivo. From the text: (§1) Subsequent experiments have verified that the extermination occurred when the pH value of the water is reduced to 5.8 or less. Dead algal remains can be filtered out when acidized polluted water by the new filtering system of aquitransistor/filter, and the filtered water is suitable as source of urban water supply. […] Those discoveries and previous developments were patented to teach the use of carbon dioxide as algicide in environmental rehabilitation of polluted lakes and streams for urban water supply. The two Patent applications are:
The Dianchi water with pH values ranging up to 9 was reduced to less than 6, and the empirical rate was estimated in experiments to reduce the pH value by three units. The amount of dissolving carbon dioxide into alkaline waters to combate pollution is substantial. To suppress the algal growth in streams, ponds, swimming pools or fish tanks, the quantity of carbon dioxide required is small. The purpose is less to reduce carbon dioxide emission, but to maintain the cleanness of the water body. The growth of algae can be suppressed if the pH of water is maintained at 7, through the dissolution of carbon dioxide in water. The requirement is in the range of 10-100 grams carbon dioxide for one cubic-meter volume of water, depending the atmosphere-water interchange rate, and other factors. […] Since the main expenditure will be acidization, which is about 30$ per ton, the cost of maintaining algae-free swimming pool should be less than a few dollars per week. Very small metal containers for acidization of […] to produce carbon dioxide can be attached to fish tanks. The occasional bubbling of carbon dioxide to neutralize the alkalinity of water would not only be functional, but also fascinating to children owning the pet fish, and to their mother would not have to slave every month to clean up the algal pollution. Where medium or small quantifies of carbon dioxide are required, we recommend the use of carbon dioxide produced by the acidization of carbonates. The by-product CaCl2 is useful, but has little commercial value. […]

In test [2] the test system is green algae, blue-green algae and other polluting algae. As to the kind of experiment: Experiments in Beijing: suppression of algal growth by keeping water pH low. It is filed as in vivo.
Description: as §1
The Dianchi water with pH values ranging up to 9 was reduced to less than 6, and the empirical rate was estimated in experiments to reduce the pH value by three units. The amount of dissolving carbon dioxide into alkaline waters to combate pollution is substantial. To suppress the algal growth in streams, ponds, swimming pools or fish tanks, the quantity of carbon dioxide required is small. The purpose is less to reduce carbon dioxide emission, but to maintain the cleanness of the water body. The growth of algae can be suppressed if the pH of water is maintained at 7, through the dissolution of carbon dioxide in water. […] Where medium or small quantifies of carbon dioxide are required, we recommend the use of carbon dioxide produced by the acidization of carbonates. […]

`O=C=O` [carbon dioxide]: the “extermination of polluting algae after acidization of the water” value in test [1] (Dianchi lake water acidized by carbon dioxide) was “all be exterminated”. For the same compound, the “empirical rate of CO2 to reduce the pH value by three units” value in test [1] (Dianchi water, pH up to 9 reduced to less than 6) is 2 kg CO2 per ton water. In addition, the “pH of Dianchi water after treatment” value in test [1] (starting pH values ranging up to 9, 2 kg CO2 per ton water) is given as “less than 6 pH”. For the same compound, in test [1] (water acidized by carbon dioxide), the “pH value of the water at which extermination occurred” value is recorded as at most 5.8 pH. The “pH value of water at which algal growth is suppressed” value in test [2] (pH kept at this value or below) is given as at most 7.0 pH. In test [2] (streams, ponds, swimming pools or fish tanks, depends on atmosphere-water interchange rate), the “carbon dioxide requirement to suppress algal growth (pH maintained at 7)” value is given as 10-100 grams carbon dioxide for one cubic-meter volume of water.
